# Results reported in patent US9981923B2, “1,2,3 Triazole antifungal agents and preparation thereof” (COUNCIL OF SCIENTIFIC & INDUSTRIAL RESEARCH, priority 2014, dated 2018).
# Where two headings read alike, the source gives them in different places.
# Key:
# [1] = system: Candida glabrata NCYC 388; assay: Antifungal susceptibility by microbroth dilution (CLSI); assay type: cell-based
# Method: (§1) The synthesized compounds were evaluated for antifungal susceptibility by microbroth dilution method according to the recommendations of the Clinical Laboratory Standards Institute (CLSI 2008). Briefly, appropriate amount of compounds were dissolved in dimethyl sulfoxide to get 100× final strength. The stock was then diluted 1:50 in RPMI/YPG medium and 200 μl from this was added to the first row of a 96-well microtitre plate. The compounds were serially diluted two fold in successive wells to get a range of 1-128 μg/ml. Fungal yeast cells (˜2×10^3 cfu/mL), freshly grown in YPG broth in logarithmic phase, were suspended in the medium and inoculated (100 μl) in the wells of the plate. For filamentous fungi, 2×10^4 spores/mL were added. The microtitre plate was incubated for 48 h, and the absorbance was measured at 600 nm by using microtitre plate reader to assess cell growth.
# [2] = system: Candida albicans ATCC 24433; assay: as above; assay type: cell-based; conditions: for MIC: Table 1, 48 h, >90% inhibition of growth, range 1-128 μg/ml
# Method: as §1
# [3] = system: Aspergillus fumigatus MCC 1046; assay: as above; assay type: cell-based
# Method: as §1
# [4] = system: Cryptococcus neoformans ATCC 34664; assay: as above; assay type: cell-based; conditions: for MIC: Table 1, 48 h, >90% inhibition of growth
# Method: as §1
# [5] = system: Aspergillus niger ATCC 10578; assay: as above; assay type: cell-based
# Method: as §1
# [6] = system: Candida albicans ATCC 10231; assay: Antifungal susceptibility by microbroth dilution (CLSI); assay type: cell-based; conditions: for MIC: Table 1, 48 h, >90% inhibition of growth
# Method: as §1
# [7] = system: reactive oxygen species (ROS); assay: ROS production using dichlorofluorescin diacetate dye; assay type: cell-based; conditions: C. albicans ATCC 24433, dichlorofluorescin diacetate dye
# Method: Apart from lanosterol 14 a-demethylase inhibition, few azoles like miconazole are known to exert their antifungal action by reactive oxygen species (ROS) generation. Therefore ROS production in C. albicans ATCC 24433 was evaluated for these compounds by using dichlorofluorescin diacetate dye. […] ROS can damage a wide range of molecules, including nucleic acids, proteins and lipids, can cause apoptosis, necrotic death and with this wide range of targets it is difficult to determine which events lead to loss of viability of cells following damage.
# ergosterol = assay: Effect of the compounds on sterol profile (spectrophotometric ergosterol quantitation); assay type: cell-based, C. albicans ATCC 24433; conditions: for ergosterol depletion (sterol profile, height of absorbance peaks 220-300 nm): C. albicans ATCC 24433, 24 h, 0.5 MIC and MIC of the lead compounds; for inhibition of lanosterol 14 α-demethylase enzyme (concluded from ergosterol depletion): C. albicans ATCC 24433 sterol profile
# Method: Inhibition of lanosterol 14 α-demethylase by azoles results in depletion of ergosterol. The depletion can be quantified by spectrophotometry. Briefly, Overnight grown C. albicans ATCC 24433 (1×10^6 cfu/ml) cells were inoculated in a series of flasks containing 50 ml of Yeast extract Peptone Glucose (YPG) broth containing […] of fluconazole per ml as well as 0.5 MIC and MIC of the lead compounds. The cultures were incubated for 24 h with shaking at 30° C. The stationary-phase cells were harvested by centrifugation […] and washed once with sterile distilled water. The net wet weight of the cell pellet was determined. Three milliliters of 25% alcoholic potassium hydroxide solution (25 g of […] and 35 ml of sterile distilled water, brought to 100 ml with 100% ethanol), was added to 125 mg of pellet and vortex mixed for 1 min. Cell suspensions were transferred to sterile borosilicate glass screw-cap tubes and were incubated in an 85° C. water bath for 1 h. Following incubation, tubes were allowed to cool to room temperature. Sterols were then extracted by addition of a mixture of 1 ml of sterile distilled water and 3 ml of n-heptane followed by vigorous vortex mixing for 3 min. The heptane layer was transferred to a clean borosilicate glass screw-cap tube. The sterol extract was scanned spectrophotometrically between 220 and 300 nm with a Spectrophotometer.
# pathogenic fungi = assay: Antifungal activity, overall assessment of the microbroth dilution results; assay type: cell-based; conditions: based on the MIC results
# Method: as §1
# C. tropicalis ATCC 750 = assay: Antifungal susceptibility by microbroth dilution (CLSI); assay type: cell-based; conditions: Table 2
# Method: as §1
# [8] = Nakaseomyces glabratus, NCYC388, Table 1, 48 h, >90% inhibition of growth, read-out: MIC
# [9] = Candida albicans, ATCC24433, read-out: MIC
# [10] = Aspergillus fumigatus, MCC1046, Table 1, 48 h, >90% inhibition of growth, read-out: MIC
# [11] = Cryptococcus neoformans, ATCC34664, read-out: MIC
# [12] = Aspergillus niger, ATCC10578, Table 1, 48 h, >90% inhibition of growth, read-out: MIC
# [13] = Candida albicans, ATCC10231, read-out: MIC
# [14] = Table 1, 48 h, >90% inhibition of growth
SMILES,melting point,"MIC [1, 8]","MIC [2, 9]","MIC [3, 10]","MIC [4, 11]","MIC [5, 12]",other results
"Cc1cc(C)cc(C(O)c2cn(-c3cc(Cl)ccc3O)nn2)c1 (stereo not drawn) [Compound 1aa, 4-Chloro-2-(4-((3,5-dimethylphenyl)(hydroxy)methyl)-1H-1,2,3-triazol-1-yl)phenol]",191 to 193 °C,32 µg/mL,64 µg/mL,64 µg/mL,32 µg/mL,64 µg/mL,
"Cc1cc(C)cc(C(O)c2cn(-c3ccc(Cl)cc3O)nn2)c1 (stereo not drawn) [Compound 1ab, 5-Chloro-2-(4-((3,5-dimethylphenyl)(hydroxy)methyl)-1H-1,2,3-triazol-1-yl)phenol]",,32 µg/mL,32 µg/mL,32 µg/mL,32 µg/mL,> 128 µg/mL,"MIC [6, 13]: 32 µg/mL; ROS generation [7]: dose dependent increase in ROS generation; ergosterol depletion (sterol profile, height of absorbance peaks 220-300 nm) (ergosterol): no ergosterol depletion was observed; antifungal activity, overall assessment (pathogenic fungi): promising molecules"
"Oc1ccc(Cl)cc1-n1cc(C(O)c2cc(C(F)(F)F)cc(C(F)(F)F)c2)nn1 (stereo not drawn) [Compound 1ba, 2-(4-((3,5-Bis(trifluoromethyl)phenyl)(hydroxy)methyl)-1H-1,2,3-triazol-1-yl)-4-chlorophenol]",211 to 213 °C,128 µg/mL,128 µg/mL,> 128 µg/mL,16 µg/mL,> 128 µg/mL,
CCC(O)(c1ccccc1)c1cn(-c2ccc(Cl)cc2O)nn1 (stereo not drawn) [Compound 1db],,,,,,,"MIC [1, 14]: 8 µg/mL; MIC [2]: 16 µg/mL; MIC [3, 14]: >128 µg/mL; MIC [4]: 16 µg/mL; MIC [6]: 32 µg/mL; MIC [5, 14]: >128 µg/mL; antifungal activity, overall assessment (pathogenic fungi): promising molecules"
"Oc1ccc(Cl)cc1-n1cc(CC(O)c2ccccc2)nn1 (stereo not drawn) [Compound 1ea, 4-Chloro-2-(4-(2-hydroxy-2-phenylethyl)-1H-1,2,3-triazol-1-yl)phenol]",148 to 150 °C,128 µg/mL,64 µg/mL,128 µg/mL,> 128 µg/mL,64 µg/mL,
"Oc1cc(Cl)ccc1-n1cc(CC(O)c2ccccc2)nn1 (stereo not drawn) [Compound 1eb, 5-Chloro-2-(4-(2-hydroxy-2-phenylethyl)-1H-1,2,3-triazol-1-yl)phenol]",171 to 172 °C,,,,,,
"Oc1ccc(Cl)cc1-n1cc(CC(O)c2cc(C(F)(F)F)cc(C(F)(F)F)c2)nn1 (stereo not drawn) [Compound 1ja, 2-(-4-(2-(3,5-Bis(trifluoromethyl)phenyl)-2-hydroxyethyl)-1,2,3-triazol-1-yl)-4-chlorophenol]",181 to 183 °C,,,,,,
"Oc1cc(Cl)ccc1-n1cc(CC(O)c2cc(C(F)(F)F)cc(C(F)(F)F)c2)nn1 (stereo not drawn) [Compound 1jb, 2-(4-(2-(3,5-Bis(trifluoromethyl)phenyl)-2-hydroxyethyl)-1H-1,2,3-triazol-1-yl)-5-chlorophenol]",192 to 194 °C,,,,,,
CC(O)(c1ccccc1)c1cn(-c2cc(Cl)ccc2O)nn1 (stereo not drawn) [Compound 2ca],,,,,,,inhibition of lanosterol 14 α-demethylase enzyme (concluded from ergosterol depletion) (ergosterol): potent inhibitors
"CC(O)(Cc1cn(-c2cc(Cl)ccc2O)nn1)c1ccccc1 (stereo not drawn) [Compound 2fa, 4-Chloro-2-(4-(2-hydroxy-2-phenylpropyl)-1H-1,2,3-triazol-1-yl)phenol]",,8 µg/mL,16 µg/mL,8 µg/mL,16 µg/mL,> 128 µg/mL,"MIC [6, 13]: 16 µg/mL; ROS generation [7]: dose dependent increase in ROS generation; antifungal activity, overall assessment (pathogenic fungi): promising molecules"
"CCC(O)(Cc1cn(-c2cc(Cl)ccc2O)nn1)c1ccccc1 (stereo not drawn) [Compound 2ga, 4-Chloro-2-(4-(2-hydroxy-2-phenylbutyl)-1H-1,2,3-triazol-1-yl)phenol]",153 to 155 °C,8 µg/mL,16 µg/mL,32 µg/mL,16 µg/mL,> 128 µg/mL,"MIC [6, 13]: 16 µg/mL; inhibition of lanosterol 14 α-demethylase enzyme (concluded from ergosterol depletion) (ergosterol): potent inhibitors; antifungal activity, overall assessment (pathogenic fungi): promising molecules"
"CCC(O)(Cc1cn(-c2ccc(Cl)cc2O)nn1)c1ccccc1 (stereo not drawn) [Compound 2gb, 5-Chloro-2-(4-(2-hydroxy-2-phenylbutyl)-1H-1,2,3-triazol-1-yl)phenol]",129 to 131 °C,8 µg/mL,16 µg/mL,8 µg/mL,8 µg/mL,> 128 µg/mL,"MIC [6, 13]: 16 µg/mL; ergosterol depletion (sterol profile, height of absorbance peaks 220-300 nm) (ergosterol): most effective; antifungal activity, overall assessment (pathogenic fungi): promising molecules"
"CN(C)c1ccc(C(O)Cc2cn(-c3cc(Cl)ccc3O)nn2)cc1 (stereo not drawn) [Compound 3ga, 4-Chloro-2-(4-(2-(4-(dimethylamino)phenyl)-2-hydroxyethyl)-1H-1,2,3-triazol-1-yl)phenol]",,,,,,,MIC values (C. tropicalis ATCC 750): >256 µg/mL; MIC values ([1]; Table 2): 16 µg/mL; MIC values ([2]; Table 2): 64 µg/mL; MIC values ([3]; Table 2): >256 µg/mL; MIC values ([4]; Table 2): 64 µg/mL; MIC values ([6]; Table 2): 16 µg/mL; MIC values ([5]; Table 2): >256 µg/mL
"OC(Cn1cncn1)(Cn1cncn1)c1ccc(F)cc1F [Fluconazole, reference compound]",,,2 µg/mL,,32 µg/mL,,"MIC ([1]; Nakaseomyces glabratus, NCYC388, 48 h): > 128 µg/mL; MIC ([3]; Aspergillus fumigatus, MCC1046, 48 h): > 128 µg/mL; MIC [6, 13]: 8 µg/mL; MIC ([5]; Aspergillus niger, ATCC10578, 48 h): > 128 µg/mL; ergosterol depletion (sterol profile, height of absorbance peaks 220-300 nm) (ergosterol): dose-dependent decrease in the height of the absorbance peaks"

# The next lines start with results.
melting point,SMILES,"MIC [1, 8]","MIC [2, 9]","MIC [3, 10]","MIC [4, 11]","MIC [5, 12]",other results
232 to 234 °C,"CC(O)(c1ccccc1)c1cn(-c2ccc(Cl)cc2O)nn1 (stereo not drawn) [Compound 2cb, 5-Chloro-2-(4-(1-hydroxy-1-phenylethyl)-1H-1,2,3-triazol-1-yl)phenol]",,,,,,"ergosterol depletion (sterol profile, height of absorbance peaks 220-300 nm) (ergosterol): no ergosterol depletion was observed"
189 to 190 °C,"CC(O)(Cc1cn(-c2ccc(Cl)cc2O)nn1)c1ccccc1 (stereo not drawn) [Compound 2fb, 5-Chloro-2-(4-(2-hydroxy-2-phenylpropyl)-1H-1,2,3-triazol-1-yl)phenol]",,,,,,
165 to 167 °C,"CCCCC(O)(Cc1cn(-c2cc(Cl)ccc2O)nn1)c1ccccc1 (stereo not drawn) [Compound 2ha, 4-chloro-2-(4-(2-hydroxy-2-phenylhexyl)-1H-1,2,3-triazol-1-yl)phenol]",,,,,,
194 to 196 °C,"Oc1ccc(Cl)cc1-n1cc(CC(O)(c2ccccc2)c2ccccc2)nn1 [Compound 2ia, 4-Chloro-2-(4-(2-hydroxy-2,2-diphenylethyl)-1H-1,2,3-triazol-1-yl)phenol]",128 µg/mL,128 µg/mL,128 µg/mL,> 128 µg/mL,> 128 µg/mL,
210 to 212 °C,"Oc1cc(Cl)ccc1-n1cc(CC(O)(c2ccccc2)c2ccccc2)nn1 [Compound 2ib, 5-Chloro-2-(-4-(2-hydroxy-2,2-diphenylethyl)-1H-1,2,3-triazol-1-yl)phenol]",,,,,,
156 to 158 °C,"CC(O)(Cc1cn(-c2ccc(Cl)cc2O)nn1)c1cc(C(F)(F)F)cc(C(F)(F)F)c1 (stereo not drawn) [Compound 2sb, 2-(4-(2-(3,5-Bis(trifluoromethyl)phenyl)-2-hydroxypropyl)-1H-1,2,3-triazol-1-yl)-5-chlorophenol]",,,,,,
